Legend:
[1] = Rat liver microsomal stability; assay type: in vitro ADME; details: for half-life / microsomal CLint: rat liver microsomes 0.5 mg/mL, with NADPH; for half-life / microsomal CLint / Rat Liver Microsomal Stability no NADPH, % remain 1 h: compound 0.5 μM; for half-life: 37° C., read-out: Rat Liver Microsomal Stability t1/2; for microsomal CLint: read-out: Rat Liver Microsomal Stability CLint (uL/min/mg liver); for Comments: production of GNX (ganaxolone) in rat liver microsomes / Rat Liver Microsomal Stability no NADPH, % remain 1 h: rat liver microsomes
Method: (§1) For several compounds only human liver microsomal stability was tested. […] The microsomal assays were carried out with and without the addition of NADPH at a final concentration of 1 mM. For negative control samples, NADPH reagent was not added. […] Note that compounds undergo only Phase I metabolism in liver microsomes.
CLint=the intrinsic hepatic clearance (uL/min/mg), where CLint is equal to 0.693/(t1/2×Cmp)

in vitro [2] = assay type: in vitro ADME, human; details: for microsomal CLint: read-out: Human Liver Microsomal Stability CLint (uL/min/mg liver) (converted); for Comments: production of GNX (ganaxolone) in human liver microsomes / Human Liver Microsomal Stability no NADPH, % remain 1 h: human liver microsomes
Method: as §1

in vitro [3] = details: for Human plasma t90: 2 μg/mL, 37° C.; for Observations: stability / GNX production in human plasma / half-life: human, plasma
Method: The plasma stability of exemplary compounds was tested using rat, mice, dog, and human plasma, according to the following protocol. For each test compound, samples at a final concentration of 2 μg/mL were prepared in blank plasma of selected species. All samples were incubated at 37° C. on a 150-RPM orbital shaker, and an aliquot was removed at pre-determined time points (0, 15, 30, 60, and 120 minutes). Samples were precipitated with three volumes of acetonitrile containing propranolol as internal standard, and centrifuged for 10 min at 2000 g before LC/MS/MS analysis of the supernatant solutions.

[4] = human liver microsomes 0.5 mg/mL, with NADPH, compound 0.5 μM, 37° C., read-out: Human Liver Microsomal Stability t1/2
[5] = human liver microsomes 0.5 mg/mL, with NADPH, compound 0.5 μM

SMILES: COCCN(C)CC(=O)O[C@]1(C)CC[C@@]2(C)[C@@H](CC[C@@H]3[C@@H]2CC[C@]2(C)[C@@H](C(C)=O)CC[C@@H]32)C1 [Compound 104]
- Comments: production of GNX (ganaxolone) in rat liver microsomes [1]: GNX not produced in human or rat
- half-life [1]: 0.123 h
- microsomal CLint [1]: 187 µL/min/mg
- Rat Liver Microsomal Stability no NADPH, % remain 1 h [1]: 99%
- Comments: production of GNX (ganaxolone) in human liver microsomes (in vitro [2]): GNX not produced in human or rat
- half-life (in vitro [2]; [4]): 0.2 h
- microsomal CLint (in vitro [2]; [5]): 116 µL/min/mg
- Human Liver Microsomal Stability no NADPH, % remain 1 h (in vitro [2]; compound 0.5 μM): 98%

SMILES: CC(=O)[C@H]1CC[C@H]2[C@@H]3CC[C@H]4C[C@](C)(OC(=O)CNCCO)CC[C@]4(C)[C@H]3CC[C@]12C [Compound 107]
- Comments: production of GNX (ganaxolone) in rat liver microsomes [1]: GNX not produced in human or rat
- half-life [1]: 0.365 h
- microsomal CLint [1]: 63 µL/min/mg
- Rat Liver Microsomal Stability no NADPH, % remain 1 h [1]: 98%
- Comments: production of GNX (ganaxolone) in human liver microsomes (in vitro [2]): GNX not produced in human or rat
- microsomal CLint (in vitro [2]; [5]): 21.4 µL/min/mg
- Human Liver Microsomal Stability no NADPH, % remain 1 h (in vitro [2]; compound 0.5 μM): 99%
- half-life (in vitro [2]; human, microsomes): 1.08 h

SMILES: CC(=O)[C@H]1CC[C@H]2[C@@H]3CC[C@H]4C[C@](C)(OC(=O)COC(=O)CN5CCN(C)CC5)CC[C@]4(C)[C@H]3CC[C@]12C [Compound 208]
- Comments: production of GNX (ganaxolone) in human liver microsomes (in vitro [2]): In human GNX not produced
- half-life (in vitro [2]; [4]): 0.617 h
- microsomal CLint (in vitro [2]; [5]): 37.4 µL/min/mg
- Human Liver Microsomal Stability no NADPH, % remain 1 h (in vitro [2]; compound 0.5 μM): 72%
- Human plasma t90 (in vitro [3]): 26.6 min
- Observations: stability / GNX production in human plasma (in vitro [3]): No GNX produced
- half-life (in vitro [3]): 2.95 h

SMILES: CC(=O)[C@H]1CC[C@H]2[C@@H]3CC[C@H]4C[C@](C)(OC(=O)COC(=O)OCCN(C)C)CC[C@]4(C)[C@H]3CC[C@]12C [Compound 220]
- half-life (in vitro [2]; [4]): 0.197 h
- microsomal CLint (in vitro [2]; [5]): 117 µL/min/mg
- Human Liver Microsomal Stability no NADPH, % remain 1 h (in vitro [2]; compound 0.5 μM): 4%
- Human plasma t90 (in vitro [3]): 3.18 min
- Observations: stability / GNX production in human plasma (in vitro [3]): In human no GNX
- half-life (in vitro [3]): 0.352 h

SMILES: CC(=O)[C@H]1CC[C@H]2[C@@H]3CC[C@H]4C[C@](C)(OC(=O)CCC(=O)NCCN(C)C)CC[C@]4(C)[C@H]3CC[C@]12C [Compound 410]
- Comments: production of GNX (ganaxolone) in human liver microsomes (in vitro [2]): In human no GNX produced
- half-life (in vitro [2]; [4]): 7.32 h
- microsomal CLint (in vitro [2]; [5]): 3.16 µL/min/mg
- Human Liver Microsomal Stability no NADPH, % remain 1 h (in vitro [2]; compound 0.5 μM): 99%

SMILES: CC(=O)[C@H]1CC[C@H]2[C@@H]3CC[C@H]4C[C@](C)(OC(=O)C5CC5C(=O)NCCN(C)C)CC[C@]4(C)[C@H]3CC[C@]12C (stereo partly shown) [Compound 411]
- Comments: production of GNX (ganaxolone) in human liver microsomes (in vitro [2]): In human small amount of GNX produced
- half-life (in vitro [2]; [4]): 7.4 h
- microsomal CLint (in vitro [2]; [5]): 3.12 µL/min/mg
- Human Liver Microsomal Stability no NADPH, % remain 1 h (in vitro [2]; compound 0.5 μM): 99%

SMILES: CC(=O)[C@H]1CC[C@H]2[C@@H]3CC[C@H]4C[C@](C)(OC(=O)CC(C)(C)C(=O)NCCN(C)C)CC[C@]4(C)[C@H]3CC[C@]12C [Compound 412]
- Comments: production of GNX (ganaxolone) in human liver microsomes (in vitro [2]): In human small amount of GNX produced
- half-life (in vitro [2]; [4]): 4.55 h
- microsomal CLint (in vitro [2]; [5]): 5.07 µL/min/mg
- Human Liver Microsomal Stability no NADPH, % remain 1 h (in vitro [2]; compound 0.5 μM): 94%

SMILES: CC(=O)[C@H]1CC[C@H]2[C@@H]3CC[C@H]4C[C@](C)(OC(=O)CC(C)(C)C(=O)OCCN(C)C)CC[C@]4(C)[C@H]3CC[C@]12C [Compound 413]
- Comments: production of GNX (ganaxolone) in human liver microsomes (in vitro [2]): In human no GNX produced
- half-life (in vitro [2]; [4]): 2.1 h
- microsomal CLint (in vitro [2]; [5]): 11 µL/min/mg
- Human Liver Microsomal Stability no NADPH, % remain 1 h (in vitro [2]; compound 0.5 μM): 89%

SMILES: CC(=O)[C@H]1CC[C@H]2[C@@H]3CC[C@H]4C[C@](C)(OC(=O)C[C@H](N)C(=O)O)CC[C@]4(C)[C@H]3CC[C@]12C [Compound 414]
- Comments: production of GNX (ganaxolone) in human liver microsomes (in vitro [2]): In human no GNX produced
- half-life (in vitro [2]; [4]): 2.97 h
- microsomal CLint (in vitro [2]; [5]): 7.81 µL/min/mg
- Human Liver Microsomal Stability no NADPH, % remain 1 h (in vitro [2]; compound 0.5 μM): 82%

SMILES: CC(=O)[C@H]1CC[C@H]2[C@@H]3CC[C@H]4C[C@](C)(OC(=O)CCN5C(=O)CCC5=O)CC[C@]4(C)[C@H]3CC[C@]12C [Compound 415]
- Comments: production of GNX (ganaxolone) in human liver microsomes (in vitro [2]): In human small amount of GNX produced
- half-life (in vitro [2]; [4]): 0.137 h
- microsomal CLint (in vitro [2]; [5]): 169 µL/min/mg
- Human Liver Microsomal Stability no NADPH, % remain 1 h (in vitro [2]; compound 0.5 μM): 99%

SMILES: CC(=O)[C@H]1CC[C@H]2[C@@H]3CC[C@H]4C[C@](C)(OC(=O)CC[C@H](N)C(=O)O)CC[C@]4(C)[C@H]3CC[C@]12C [Compound 416]
- Comments: production of GNX (ganaxolone) in human liver microsomes (in vitro [2]): In human no GNX produced
- half-life (in vitro [2]; [4]): 4.55 h
- microsomal CLint (in vitro [2]; [5]): 5.08 µL/min/mg
- Human Liver Microsomal Stability no NADPH, % remain 1 h (in vitro [2]; compound 0.5 μM): 99%

SMILES: CC(=O)[C@H]1CC[C@H]2[C@@H]3CC[C@H]4C[C@](C)(OC(=O)CCCN)CC[C@]4(C)[C@H]3CC[C@]12C [Compound 417]
- Comments: production of GNX (ganaxolone) in human liver microsomes (in vitro [2]): In human no GNX produced
- half-life (in vitro [2]; [4]): 8.23 h
- microsomal CLint (in vitro [2]; [5]): 2.81 µL/min/mg
- Human Liver Microsomal Stability no NADPH, % remain 1 h (in vitro [2]; compound 0.5 μM): 99%

SMILES: CC(=O)[C@H]1CC[C@H]2[C@@H]3CC[C@H]4C[C@](C)(OC(=O)CCCCN)CC[C@]4(C)[C@H]3CC[C@]12C [Compound 418]
- Comments: production of GNX (ganaxolone) in human liver microsomes (in vitro [2]): In human no GNX produced
- half-life (in vitro [2]; [4]): 7.52 h
- microsomal CLint (in vitro [2]; [5]): 3.08 µL/min/mg
- Human Liver Microsomal Stability no NADPH, % remain 1 h (in vitro [2]; compound 0.5 μM): 99%

SMILES: CC(=O)[C@H]1CC[C@H]2[C@@H]3CC[C@H]4C[C@](C)(OC(=O)OCCN(C)C)CC[C@]4(C)[C@H]3CC[C@]12C [Compound 419]
- Comments: production of GNX (ganaxolone) in human liver microsomes (in vitro [2]): In human small amount of GNX produced
- half-life (in vitro [2]; [4]): 0.658 h
- microsomal CLint (in vitro [2]; [5]): 35.1 µL/min/mg
- Human Liver Microsomal Stability no NADPH, % remain 1 h (in vitro [2]; compound 0.5 μM): 88%

SMILES: CC(=O)[C@H]1CC[C@H]2[C@@H]3CC[C@H]4C[C@](C)(OC(=O)CC(C)(C)C(=O)O)CC[C@]4(C)[C@H]3CC[C@]12C [Compound 420]
- Comments: production of GNX (ganaxolone) in human liver microsomes (in vitro [2]): In human no GNX produced
- half-life (in vitro [2]; [4]): 7.42 h
- microsomal CLint (in vitro [2]; [5]): 3.11 µL/min/mg
- Human Liver Microsomal Stability no NADPH, % remain 1 h (in vitro [2]; compound 0.5 μM): 97.4%
